These results are taken from ChEMBL document CHEMBL3272241, “Synthesis and antiprotozoal activity of 2,5-bis(4-guanylphenyl)thiophenes and -pyrroles” (J Med Chem, 1977).

Activity calls are given as the source filed them. The rule behind the calls is not given here.

In data set [1] the test system is Plasmodium berghei. The experiment in a line: Antimalarial activity against Plasmodium berghei infected in mouse. The class given is functional, organism-based.
Data set [2] deals with Trypanosoma brucei rhodesiense. The experiment in a line: Antitrypanosomal activity against Trypanosoma rhodesiense infected in mouse assessed as increase in mean survival time at 160 mg/kg relative to control. The class given is functional.
Data set [3] has as its system Trypanosoma brucei rhodesiense. The data set is described as follows: Antitrypanosomal activity against Trypanosoma rhodesiense infected in mouse assessed as increase in survival time by 30 days at 320 mg/kg relative to control. In kind it is functional.
Data set [4] relates to Trypanosoma brucei rhodesiense. The data set is described as follows: Antitrypanosomal activity against Trypanosoma rhodesiense infected in mouse assessed as increase in survival time by 30 days at 640 mg/kg relative to control. In kind it is functional.
The subject of data set [5] is Trypanosoma brucei rhodesiense. The data set is described as follows: Antitrypanosomal activity against Trypanosoma rhodesiense infected in mouse assessed as increase in survival time by 30 days at 160 mg/kg relative to control. The class given is functional.
Data set [6] relates to Trypanosoma brucei rhodesiense. The experiment in a line: Antitrypanosomal activity against Trypanosoma rhodesiense infected in mouse assessed as increase in survival time by 30 days at 80 mg/kg relative to control. In kind it is functional.
Data set [7] concerns Trypanosoma brucei rhodesiense. The experiment in a line: Antitrypanosomal activity against Trypanosoma rhodesiense infected in mouse assessed as increase in survival time by 30 days at 20 mg/kg relative to control. The class given is functional.
The subject of data set [8] is Trypanosoma brucei rhodesiense. The experiment in a line: Antitrypanosomal activity against Trypanosoma rhodesiense infected in mouse assessed as increase in survival time by 30 days at 40 mg/kg relative to control. The class given is functional.
For data set [9], the system named is Trypanosoma brucei rhodesiense. The data set is described as follows: Antitrypanosomal activity against Trypanosoma rhodesiense infected in mouse assessed as increase in survival time by 30 days at 10 mg/kg relative to control. The class given is functional.
Data set [10] deals with Trypanosoma brucei rhodesiense. The experiment in a line: Antitrypanosomal activity against Trypanosoma rhodesiense infected in mouse assessed as increase in survival time by 30 days at 2.5 mg/kg relative to control. In kind it is functional.
For data set [11], the system named is Trypanosoma brucei rhodesiense. The data set is described as follows: Antitrypanosomal activity against Trypanosoma rhodesiense infected in mouse assessed as increase in survival time by 30 days at 5 mg/kg relative to control. In kind it is functional.
The subject of data set [12] is Mus musculus. The data set is described as follows: Acute toxicity in mouse infected with Trypanosoma rhodesiense assessed as death at 320 mg/kg. Also noted: dose 320 mg/kg. The class given is organism-based. As to conditions: in vivo.
Data set [13] concerns Mus musculus. The data set is described as follows: Acute toxicity in mouse infected with Trypanosoma rhodesiense assessed as death at 640 mg/kg. In kind it is organism-based. As to conditions: in vivo. Also noted: dose 640 mg/kg.
Data set [14] has as its system Trypanosoma brucei rhodesiense. The experiment in a line: Antitrypanosomal activity against Trypanosoma rhodesiense infected in mouse assessed as increase in mean survival time at 40 mg/kg relative to control. In kind it is functional.
In data set [15] the test system is Trypanosoma brucei rhodesiense. The data set is described as follows: Antitrypanosomal activity against Trypanosoma rhodesiense infected in mouse assessed as increase in mean survival time at 80 mg/kg relative to control. In kind it is functional.
In data set [16] the test system is Trypanosoma brucei rhodesiense. The experiment in a line: Antitrypanosomal activity against Trypanosoma rhodesiense infected in mouse assessed as increase in mean survival time at 20 mg/kg relative to control. The class given is functional.

In the case of `[Cl-].[Cl-].c1cc([C+]2NCCN2)ccc1-c1ccc(-c2ccc([C+]3NCCN3)cc2)s1`, the result in data set [1] was inactive. For the same compound, the MST in data set [2] came to 1.6 days; in [3], 2 days; in data set [4], 3 days.

In the case of `N=C(N)c1ccc(OCCCCCOc2ccc(C(=N)N)cc2)cc1` [PENTAMIDINE], the MST in [5], in data set [6], in data set [7], in data set [8], in data set [9] and in data set [3] was 5 days each time. Also, the results for the MST in data set [10], in data set [11] and in data set [4] were 4 days, 5 days and 5 days, respectively.

As for `[Cl-].[Cl-].c1cc([C+]2NCCCN2)ccc1-c1ccc(-c2ccc([C+]3NCCCN3)cc2)s1`, the MST in data set [5] was 4 days; in data set [6], 4 days; in data set [7], 3 days; in data set [8], 4 days; in data set [9] it was 2 days; in data set [3] it was 5 days. The MST in data set [4] stood at 5 days. In data set [1], the result was inactive.

Turning to `N=C(N)c1ccc(-c2ccc(-c3ccc(C(=N)N)cc3)o2)cc1` [FURAMIDINE], the MST in [5], in [6], in [7], in [8], in [9] and in data set [3] was 5 days in each case. Besides, the MST in data set [10] was 4 days; in data set [11] it was 5 days; in data set [4], 5 days.

In the case of `N=C(N)c1ccc(/C=C/c2ccc(C(=N)N)cc2O)cc1` [HYDROXYSTILBAMIDINE], the MST in [5], in [6], in [7], in data set [8], in data set [9] and in [3] was 5 days throughout. Besides, the MST in data set [10], in [11] and in data set [4] was 5 days each time.

`Cl.Cl.N=C(N)c1ccc(-c2ccc(-c3ccc(C(=N)N)cc3)s2)cc1`: the MST in data set [5] worked out at 5 days; in [6], 5 days; in data set [7], 5 days; in [8] it was 5 days; in data set [9] it was 5 days; in data set [10] it was 3 days. Moreover, the MST in data set [11] was determined as 4 days. The result in data set [1] was inactive.

On to `Cn1c(-c2ccc([C+]3NCCCN3)cc2)ccc1-c1ccc([C+]2NCCCN2)cc1.[Cl-].[Cl-]`, for which the MST is 3 days in [5]; 5 days in [6]; 3 days in [7]; 5 days in data set [8]; 2 days in data set [9]. Besides, the outcome in [1] was inactive. Moreover, the Activity result in [12] and in [13] was “Toxic” in each case.

Regarding `N=C(N)c1ccc(/C=C/c2ccc(C(=N)N)cc2)cc1` [STILBAMIDINE], the MST in data set [5], in data set [6], in [7], in data set [8], in [9] and in [3] was 5 days each time. Further, the MST in [10], in data set [11] and in data set [4] was 5 days each time.

In the case of `CC1CN[C+](c2ccc(-c3ccc(-c4ccc([C+]5NCC(C)N5)cc4)s3)cc2)N1.[Cl-].[Cl-]` (stereo not drawn), the MST came to 2 days in data set [5]; 1.2 days in data set [14]; 3 days in data set [15]; 4 days in data set [3]; 1 days in data set [16]; 4 days in [4]. Moreover, the result in data set [1] was inactive.

Turning to `Cn1c(-c2ccc([C+](N)N)cc2)ccc1-c1ccc([C+](N)N)cc1.[Cl-].[Cl-]`, the MST in [5], in data set [6], in [7], in data set [8], in data set [9] and in [3] was 5 days throughout. Besides, the MST in [10] turned out to be 2 days; in data set [11] it was 4 days. Besides, the result in data set [1] was inactive.

For the compound `CC1CN[C+](c2ccc(-c3ccc(-c4ccc([C+]5NCC(C)N5)cc4)n3C)cc2)N1.[Cl-].[Cl-]` (stereo not drawn), the MST in data set [5] turned out to be 5 days; in data set [6] it was 5 days; in data set [7], 3 days; in data set [8] it was 4 days; in [3], 5 days; in data set [4] it was 5 days. Besides, the result in [1] was inactive.

In the case of `Cn1c(-c2ccc([C+]3NCCN3)cc2)ccc1-c1ccc([C+]2NCCN2)cc1.[Cl-].[Cl-]`, the MST in [5] was determined as 5 days; in data set [6], 4 days; in data set [7], 3 days; in [8] it was 4 days; in data set [9], 2 days. Further, the outcome in data set [1] was inactive.
